{
  "source": "patent US20220145406A1",
  "about": "“BIOMARKERS, AND USES IN TREATMENT OF VIRAL INFECTIONS, INFLAMMATIONS, OR CANCER” (ABIVAX, priority 2018, published 2022)",
  "test_system": "CD4+ T cells",
  "assay": "RNAseq differential alternative splicing analysis (SUPPA) of cellular genes",
  "format": "cell-based, human",
  "set-up": "key to differential splicing Event type, gene ZNF177 / differential splicing Event type, gene FGF22 / differential splicing Event type, gene AL157955.2 / differential splicing Event type, gene TMEM147 / differential splicing Event type, gene ATIC / differential splicing Event type, gene CDRT15 / differential splicing Event type, gene WDR72 / differential splicing Event type, gene GNRHR2 / differential splicing Event type, gene ZNE584 / differential splicing Event type, gene LINC01869 / differential splicing Event type, gene LINC01119: Alternative 5′ splice site (A5); Alternative 3′ splice site (A3); Alt exons: Alternative first and last exons (Altexons); Retained intron (RI)",
  "procedure": "Buffy coats from HIV-negative individuals were obtained from the local blood donation center in Centre de transfusion sanguine Montpellier. Human peripheral blood mononuclear cells (PBMCs) were isolated by Ficoll (Histopaque, Sigma) gradient centrifugation. CD4+ and CD8+ T cells were purified from PBMCs after Ficoll gradient centrifugation by Human CD4+ beads positive selection and CD8+ beads positive selection, respectively (Miltenyi). PBMCs, CD4+ and CD8+ T cells were grown at 37° C. and 5% CO2 to a density of 1.5×10^6 cells/ml in RPMI GlutaMAX medium (Life Technologies) supplemented with 10% fetal calf serum (FCS) (Thermo Fisher), 40 U/ml of IL2 (PeproTech) and 5 μg/mL of PHA (Roche) for 2 days. Three days later, cells were resuspended at 1.5×10^6 cells/ml in RPMI supplemented with 10% FCS and 40 U/ml IL2 and separated into two parts (infected and uninfected cells). Cells were infected with 80 ng of p24/106 cells of the YU-2 strain for 4 to 6 hours and then rinsed with PBS before medium renewal.\nBoth infected and uninfected cells were then centrifuged and resuspended to a density of 1.5×10^6 cells/ml in medium supplemented with diluted drug solubilized in DMSO (Sigma) to a final 0.05% DMSO concentration or antiretroviral compounds according to the manufacturer's instructions. Cells were treated for 6 days with a medium renewal at day 3. HIV p24 titration was performed by ELISA from cell culture supernatants with Innotest kit (Ingen) according to the manufacturer's instructions.\nA full-detailed report describing the complete analysis was submitted to Gene Expression Omnibus (GEO, https://www.ncbi.nlm.nih.gov/geo/query/acc.cgi?acc=GSE116073). Total RNA extraction was performed according to the Qiagen miRNeasy □ kit. RNA concentrations were determined using Qubit[…] fluorometric quantification and purity by the RNA 6000 Bioanalyzer kit (Agilent). RNA-Seq libraries were constructed with the TruSeq stranded mRNA sample preparation (low-throughput protocol) kit from Illumina, according to the manufacturer's instructions. Aliquots of 1.2 μg of total RNA were used for the construction of the libraries. The final cDNA libraries were validated with a Fragment Analyzer (Advanced Analytical, Ankeny, Iowa) and quantified with a KAPA qPCR kit (Kapa Biosystems, Wilmington, Mass.). On the 8 sequencing lanes of a flow cell V4, the 32 libraries were pooled in equal proportions by sets of 4 libraries per lane, denatured with NaOH and diluted to […] before clustering. Cluster formation and primer hybridization and single-end read, 50-cycle sequencing were performed on the cBot and HiSeq 2500 (Illumina, San Diego, Calif.), respectively. Image analysis and base calling were performed using the HiSeq Control Software with the Real-Time Analysis component. Demultiplexing was performed using Illumina's sequencing analysis software. The quality of the data was assessed using FastQC from the Babraham Institute and the Illumina software SAV (Sequence Analysis Viewer). Potential contaminants were investigated with the FastQ Screen software from the Babraham Institute.\nTo investigate splicing activity we used SUPPA v2.0.0, a tool developed in Python 3.4 and especially designed for this approach. To study splicing across multiple conditions, we performed three modular operations that were run separately. The first step was to generate events from the annotation file commonly named the GTF file (general […]). The second step was to quantify event inclusion levels (PSIs) from our samples. Finally, differential splicing across multiple conditions was calculated for all replicates.\nTo generate the different alternative splicing events from an input annotation file (GTF format), the method reads transcript and gene information solely from the “exon” lines in the GTF. It then generates the events and outputs an ‘ioe’ file, which contains the relationship between each event and the transcripts that share this particular event. […]",
  "key": {"[1]": {"settings": "ABX464_NI_VS_DMSO_NI, uninfected CD4 T cells"}},
  "data": [
    {"compound": "FC(F)(F)Oc1ccc(Nc2ccc3cccc(Cl)c3n2)cc1", "note": "[ABX464, 8-chloro-N-(4-(trifluoromethoxy)phenyl)quinolin-2-amine]", "values": [
      {"measurement": "differential splicing Event type, gene AL157955.2", "setting": "[1]", "value": "A3"},
      {"measurement": "differential splicing Event type, gene ATIC", "setting": "[1]", "value": "A5"},
      {"measurement": "differential splicing Event type, gene CDRT15", "setting": "[1]", "value": "A5"},
      {"measurement": "differential splicing Event type, gene FGF22", "setting": "[1]", "value": "A3"},
      {"measurement": "differential splicing Event type, gene GNRHR2", "setting": "[1]", "value": "RI"},
      {"measurement": "differential splicing Event type, gene LINC01119", "setting": "[1]", "value": "A3"},
      {"measurement": "differential splicing Event type, gene LINC01869", "setting": "[1]", "value": "A3"},
      {"measurement": "differential splicing Event type, gene TMEM147", "setting": "[1]", "value": "RI"},
      {"measurement": "differential splicing Event type, gene WDR72", "setting": "[1]", "value": "A5"},
      {"measurement": "differential splicing Event type, gene ZNE584", "setting": "[1]", "value": "A3"},
      {"measurement": "differential splicing Event type, gene ZNF177", "setting": "[1]", "value": "A3"},
      {"measurement": "number of common and differential splicing events", "setting": "infected and uninfected CD4+ T cells treated with ABX464, ΔPSI >0.4, p <0.05", "value": "< 10", "unit": "events"}
    ]}
  ]
}
